The source of these data is PubChem BioAssay AID449762 (Southern Research Specialized Biocontainment Screening …, 2010).

The test system of this experiment is M. tuberculosis H37Rv growth inhibition, 7H9 media. Description: M. tuberculosis growth inhibition, HTS (AID 449762).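 For all read-outs here: bacterial growth assessed after seven days of incubation.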 Particulars: for IC90: measured here: IC90 growth inhibition.

Structures are written as SMILES. Records with an inconclusive call do not appear. Where only a bound is given, the exact number is not on record here.

In general, IC50 refers to the concentration that gives 50% inhibition. Broadly, the IC90 is the concentration at which the effect reaches the 90% level. Lower therefore signals greater potency. For `CCCn1nnnc1NC(=O)c1ccc(C)cc1Cl`, the IC50 was 7.89 µM and the IC90 was found to be 19.4 µM.
On the same counts, the results for `Cc1cc(C)c(CSc2ncc(-c3ccc([N+](=O)[O-])cc3)[nH]2)c(C)c1` are 42.5 µM and 62.8 µM.
On the same counts, the results for `Cc1ccc(C)c(N2CCN(C(=O)c3ccc4nc(N5CCOCC5)sc4c3)CC2)c1` are 37.6 µM and 47.4 µM.
On the same counts, the results for `O=C(N/N=C(\c1ccccc1)c1ccccn1)c1ccccc1Cl` are 3.65 µM and 22.1 µM.
Consider `COc1cc(/C=N/n2c(-c3ccc4c(c3)NC(=O)CO4)csc2=Nc2cccc(C)c2)ccc1O`, for which the IC50 was 34 µM and the IC90 is over 100 µM.
On the same counts, the results for `Cc1ccc(C)c(NNC(N)=S)c1` are 6.39 µM and 15.6 µM.
On the same counts, the results for `CNC(C)C#Cc1ccc2oc3cc(C)c(C)cc3c(=O)c2c1` (stereo unspecified) are 4.55 µM and 17.9 µM.
For `CCOC(=O)CNC(=S)n1cnc(N)n1`, in that order: 27.8 µM and 60.6 µM.
As to `Cc1ccc(/C=C/S(=O)(=O)NCC(=O)OCC(=O)Nc2c(F)cccc2F)cc1`, the IC50 was 5.26 µM and the IC90 worked out at 13.2 µM.
For `CC(C)Cn1c([N+](=O)[O-])nc2c1c(=O)[nH]c(=O)n2C`, in that order: 5.93 µM and 8.91 µM.
On the same counts, the results for `Cc1ccc2ccc3ccc(C)nc3c2n1` are 0.49 µM and 1.31 µM.
On the same counts, the results for `COc1cc(-c2ccc3oc(-c4ccsc4)cc(=O)c3c2)cc(OC)c1OC` are 2.07 µM and 17.6 µM.
As to `CCOC(=O)C(C)Sc1ncnc2c1nnn2-c1ccc(F)cc1` (stereo unspecified), the IC50 was 1.19 µM and the IC90 worked out at 7.38 µM.
On the same counts, the results for `CCCOc1cccc(-c2nn(-c3ccccc3)cc2/C=C(\C#N)C(=O)NCCCn2ccnc2)c1` are 44.7 µM and 62.3 µM.
For `CN(Cc1ccc(Br)cc1)C(=O)CCN1C(=O)c2cccc([N+](=O)[O-])c2C1=O`, in that order: 29.1 µM and over 100 µM.
For `Cc1ccccc1-n1c(SCC(=O)N/N=C/c2c(C)nn(-c3ccccc3)c2C)nc2ccccc2c1=O`, in that order: 2.85 µM and 3.52 µM.
Consider `COc1cc2c(-c3ccc4[nH]ccc4c3)c(-c3ccc(C#N)cc3)oc(=O)c2cc1OC`, for which the IC90 is over 100 µM.
In the case of `CCn1c(C)nc2cc(C(=O)OC(C(F)(F)C(F)F)C(F)(F)C(F)F)ccc21`, the half-inhibitory concentration (IC50) was 17.8 µM and the IC90 was determined as 26.1 µM.
On the same counts, the results for `CN(C)C1(CNC(=O)Nc2ccc(Cl)c(Cl)c2)CCCCC1` are 11.2 µM and 12.5 µM.
On the same counts, the results for `CC(C)(C)C1CCc2nc(NC(=O)Cc3cn4ccsc4n3)sc2C1` (stereo unspecified) are 15.5 µM and 39.6 µM.
Turning to `CN1/C(=C\C(=O)C[n+]2ccc(C(=O)c3ccccc3)cc2)C(C)(C)c2ccccc21`, the IC50 is 7.85 µM and the IC90 amounted to 15.3 µM.
On the same counts, the results for `CCc1ccc(-c2csc(-c3c[nH]c4ccccc34)n2)cc1` are 10.7 µM and 21.7 µM.
Regarding `Cc1cc(C)n2nc(/C(C#N)=C/c3ccccn3)c(C#N)c2n1`, the IC50 is 0.97 µM and the IC90 worked out at 17.6 µM.
On the same counts, the results for `CCOC(=O)CSc1snnc1-c1ccccc1` are 13.9 µM and 59.6 µM.
In the case of `CCOc1cc(/C=C2\COc3ccccc3C2=O)cc(Br)c1OCC(=O)N(C)C`, the IC50 is 2.75 µM and the IC90 was 6.63 µM.
As to `N/C(=N\OC(=O)Nc1ccc(Cl)c(Cl)c1)c1ncc(C(F)(F)F)cc1Cl`, the IC50 is 41.9 µM and the IC90 is 45.8 µM.
On the same counts, the results for `Cc1cccc(-c2ncc(CN3CCC(CO)(CCCc4ccccc4)CC3)cn2)c1` are 44.1 µM and 73.5 µM.
On the same counts, the results for `COc1ccc(/C=N/Nc2cc(N3CCCC3)nc(N3CCCC3)n2)cc1` are 16.3 µM and 25 µM.
With `Cc1ccc2nc(-c3ccncc3)cc(-c3ccccc3)c2c1`, the IC50 is 36.1 µM and the IC90 stood at 47.2 µM.
`Cc1nc2ccc(NC(=O)N(C(C)C)C(C)C)cc2s1` registered an IC90 of over 100 µM.
Regarding `O=C1c2ccccc2-c2onc3ccc(Oc4ccccc4)c1c23`, the half-inhibitory concentration (IC50) was 5.64 µM and the IC90 came to 10.9 µM.
For `Cc1nc(-c2ccc(Cl)cc2)sc1C1(C)CC(c2ccc(C#N)cc2)=NO1` (stereo unspecified), in that order: 51.4 µM and over 100 µM.
Turning to `CCOC(=O)c1ccc(NC(=O)Cn2ncc(Cl)c(Cl)c2=O)cc1`, the IC50 is under 0.2 µM and the IC90 was found to be 0.44 µM.
For `CC(C)CC[n+]1ccccc1/C=C/c1ccc(N(C)C)cc1`, in that order: 5.3 µM and 8.41 µM.
As to `CCCCCCCCSc1nnc(CSc2nc3nc(C)cc(C)n3n2)o1`, the IC50 was 1.05 µM and the 90% effect concentration (IC90) is 8.29 µM.
As for `CC1CCCC(C)N1C(=O)COC(=O)c1cc(-c2cccs2)nn1-c1ccccc1` (stereo unspecified), the IC50 was 24.5 µM and the IC90 was found to be 55.6 µM.
On the same counts, the results for `Cc1cccc(NC(=O)c2nc[nH]c2C(=O)N[C@H](C)c2ccccc2)c1` are 3.63 µM and over 100 µM.
In the case of `COc1ccccc1C(=O)NC(=Nc1nc2ccccc2o1)NC(=O)c1ccccc1OC`, the IC50 is 96.3 µM and the IC90 was over 100 µM.
With `CCN(CC(=O)NCc1cccs1)C(=O)c1ccc([N+](=O)[O-])o1`, the IC50 is 19 µM and the IC90 turned out to be 58.3 µM.
For `O=C(NCCc1ccccc1)[C@@H]1CC=C[C@@H]2CCN(Cc3ccc(Cl)c(Cl)c3)C(=O)[C@@H]21`, in that order: 51.3 µM and 79.1 µM.
On the same counts, the results for `On1onc2c3cc(-c4ccccc4)nc3ccc21` are under 0.2 µM and under 0.2 µM.
For `Cc1cc(C=C2C(=O)NC(=S)NC2=O)c(C)n1C1CCCC1`, in that order: 10.9 µM and 47.2 µM.
For `CC1=C(/C=C/C(C)=C/C=C/C(C)=C/C(=O)Nc2ccc(O)cc2)C(C)(C)CCC1`, the half-maximal inhibitory concentration (IC50) was 41.9 µM and the IC90 amounted to 59.8 µM.
On the same counts, the results for `CCn1cc(Br)c(C(=O)Nc2ccc(C(=O)OC(C)C)cc2)n1` are 35.5 µM and 57.8 µM.
For `CCOC(=O)c1cc(C)nc(Sc2ccc(C)cc2)c1C#N`, in that order: 4.4 µM and 11.3 µM.
On the same counts, the results for `Nc1c(C(=O)OCC2CCCO2)c2nc3ccccc3nc2n1C1CCCC1` (stereo unspecified) are 54.5 µM and over 100 µM.
`CCOC(=O)CSc1ncnc2c1sc1nc(N3CCOCC3)c3c(c12)CCCC3`: the IC50 was 23.3 µM and the IC90 is 26.2 µM.
For `CSc1ccccc1OCc1cc(C(=O)N2CCC(Oc3cccnc3)CC2)no1`, in that order: 24 µM and 27.6 µM.
For `Nc1ccc2cc(Br)ccc2c1`, in that order: 51.8 µM and 84.9 µM.
On to `N#C/C(=C1\CCCN1)c1nc(-c2ccccc2)cs1`, for which the IC90 was over 100 µM.
Regarding `CC1=CC(=O)C(C(C)C)=C/C1=N/OS(=O)(=O)c1ccccc1`, the IC50 was 1.44 µM and the 90% effect concentration (IC90) was determined as 4.12 µM.
For `CCC(=O)Oc1ccc(C(=O)Nc2ccc3c(c2)C(=O)N(C2CCCCC2)C3=O)cc1`, in that order: 21.2 µM and 44.5 µM.
For `CSc1ccc(C(=O)C2CCCN(C(=O)c3ccc4c(c3)no[n+]4[O-])C2)cc1` (stereo unspecified), in that order: 0.54 µM and 1.57 µM.
On the same counts, the results for `CC(=O)N(Cc1ccc(F)cc1)C1=C(NCCc2ccccc2)C(=O)c2ccccc2C1=O` are 5.83 µM and 6.59 µM.
As for `Cc1cc(/C=N\NC(=O)c2cccs2)c(C)n1-c1ccc2ncccc2c1`, the 50% inhibitory concentration (IC50) was 12.1 µM and the IC90 was 31.7 µM.
For `c1ccc(Nc2nc(N3CCCCC3)nc(N3CCNCC3)n2)cc1`, in that order: 46.1 µM and 68.9 µM.
On the same counts, the results for `Cn1c(CNc2nc(-c3ccccc3)cs2)nnc1SCC(=O)OC1CCCCC1` are 11.6 µM and 24.2 µM.
For `CCCCCCC[N+](CC)(CC)CCCCc1ccc(Cl)cc1`, in that order: 24.7 µM and 27.8 µM.
As for `CC(C)(C)c1ccc(-c2nc3[nH]c(=O)cc(NC(=O)c4ccco4)n3n2)cc1`, the IC50 was 74.4 µM and the concentration for an effect of 90% (IC90) was over 100 µM.
Take `CC(C)CS(=O)(=O)C1=NN2C(=N)/C(=C\c3ccc(OC(=O)c4ccco4)cc3)C(=O)N=C2S1`: the IC50 is 20.6 µM and the IC90 amounted to 25.9 µM.
`C/C(=N/Nc1ccnc2cc(Cl)ccc12)c1ccc(O)cc1`: the IC50 was 23.7 µM and the IC90 amounted to 27.2 µM.
For `c1ccc(CC2CCN(C3=Nc4cccc5cccc3c45)CC2)cc1`, in that order: 29.3 µM and 38.1 µM.
On the same counts, the results for `O=C1CCCC2=C1C1c3ccccc3C(=O)N1c1ccc(C(=O)c3ccccc3)cc1N2` (stereo unspecified) are 16 µM and 21.9 µM.
On the same counts, the results for `O=C(OCCN1C(=O)c2ccccc2C1=O)c1cc2ccccc2o1` are 12.2 µM and over 25 µM.
For the compound `CCCCCC(=O)Nc1cccc2ccccc12`, the IC50 is 14.1 µM and the IC90 is over 100 µM.
For `CC1(C)CC(NC(=O)c2ccc(Cl)c(S(=O)(=O)N(Cc3ccccc3)c3ccccc3)c2)CC(C)(C)N1`, in that order: 24.5 µM and 27.9 µM.
With `NC1=NC[C@H](CC2CCCCC2)N1CCc1cc(C(F)(F)F)cc(C(F)(F)F)c1`, the IC50 is 8.9 µM and the IC90 stood at 11.6 µM.
On the same counts, the results for `CCOC(=O)N1CCc2c(sc(NC(=O)c3ccc(Cl)s3)c2C(N)=O)C1` are 6.17 µM and 20.5 µM.
For `N=c1oc2cc(O)ccc2cc1C(=O)Nc1ccc(Br)cc1`, the IC50 is 0.86 µM and the concentration for an effect of 90% (IC90) was 4.2 µM.
Turning to `CCCCNc1c(-c2ccc(SC3CCCCC3)c(OC)c2)nc2ccc(C)cn12`, the IC50 is 11.4 µM and the IC90 worked out at 12.8 µM.
With `N/C(Cc1ccc([N+](=O)[O-])cc1)=N\OC(=O)c1ccc2ccccc2c1`, the IC50 is 22.5 µM and the IC90 is over 100 µM.
On the same counts, the results for `O=C(/C=C/c1cc(Br)ccc1O)c1ccco1` are 7.96 µM and 13.4 µM.
